In PMC10138233 (PLOS ONE, 2023):

Experiments:
[1] = test system: SH-SY5Y (human neuroblastoma) cell line; test: xCELLigence Real Time Cell Analysis (RTCA) of cell viability/proliferation
Method: (§1) This study utilized SH-SY5Y (human neuroblastoma) cell lines. […] After dissolving the cell line stored in a nitrogen tank for long-term use, the cells were removed from the culture dish with a 0.25 Trypsin/EDTA solution when they reached 70% density in the culture flasks. The cells were incubated in DMEM (Capricorn) supplemented with 10% heat-inactivated fetal bovine serum (FBS) and 0.1 mg/ml of penicillin at 37°C with 5% CO2. The medium was refreshed every 48 hours, and passages were made every 5 days based on cell confluency.
RTCA system is an analytical technique that follows cellular events such as proliferation by measuring the electric impedance passing through microelectrodes integrated beneath 96-well special plates in real-time. A 16-well e-plate compatible with the RTCA device was used, with 8 wells by 2. Firstly, 100 μl of cell culture was added to the plates to obtain the background density. Then, 3x10^4 cells were seeded in 100 μl of culture medium on top of the culture. After 24 h, the determined concentration ranges were applied.
Therefore, in this study, the concentrations of 5-10-15-25-50 μM were applied to find the optimum dose. […] There was only one study on a different cell line for quinine. […] The concentration range of 25-50-60-70-75-80-100 μM was chosen for etoperidone based on cell viability tests conducted with its analogue, trazadone.
For each selected dose, the drug was applied to two different wells. The first two wells were designated as the control group without drug application. The growth curve data was obtained from the graph generated by the device 48 h after drug application. The RTCA was repeated three times for each drug group. The IC50 calculations and the percent cell viability graphs compared to the control group were obtained from the data obtained from the three repeats.
(§2) All the analysis data from the RTCA device and the data generated from the MARS application using the microplate reader (OMEGA) were calculated in the GraphPad Prism 9.5.1 version using the ordinary one-way ANOVA multiple comparisons Tukey test. The results were graphically represented in Excel. Logarithmic calculations were made from the dose-response graph in Excel to obtain the IC50 values.

[2] = test system: SH-SY5Y (human neuroblastoma) cell line; test: MTT cell viability assay; conditions: 48 h
Method: as §1
The MTT (3-(4,5-dimethylthiazol-2-yl)-2,5-diphenyltetrazolium bromide) assay is a commonly used colorimetric assay to measure cellular viability. […] The amount of formazan produced can be measured by determining the absorbance of the solution at a specific wavelength, which is proportional to the number of viable cells. This assay is widely used in cell biology and drug discovery research to evaluate the cytotoxic effects of various agents on cell viability.
In this study, the MTT assay was selected as the cell viability test. 12,500 cells were seeded per well in a 96-well plate. The cells were then incubated at 37°C with 5% CO2 for 24 h. After 24 h, the old medium was removed and drugs prepared by serial dilution in 100 μl of DMEM within the determined concentration range were applied to three wells, with one well selected as a control (untreated). The plate was then incubated at 37°C with 5% CO2 for another 48 h. After 48 h, […] of 10% MTT (Roche) solution in DMEM was added to each well, and two empty wells were added with only MTT solution for background measurement. After 4 h, 100 μl of solubilizing buffer was added to each well. The plate was incubated at 37°C with 5% CO2 for 16 h. After 16 h, the cell number in each sample was determined by measuring the absorbance spectrophotometrically at […] using a microplate reader (OMEGA). The data was used to determine the percentage relative to the control and create a dose-cell viability graph.
as §2

SMILES: CCc1nn(CCCN2CCN(c3cccc(Cl)c3)CC2)c(=O)n1CC [Etoperidone]
- concentration that significantly reduced cell viability compared to the control group (p < 0.001) ([1]; 48 h, RTCA): 100 µM
- concentration up to which no cytotoxicity was observed (cell index) ([1]; 48 h, RTCA): ≤ 70 µM
- safe optimum concentration that does not harm cell viability ([1]; based on both RTCA and MTT): 70 µM
- concentration (and below) with cell viability close to the control, no cytotoxicity [2]: ≤ 70 µM
- cytotoxic concentration in correlation with RTCA findings [2]: 100 µM

SMILES: COc1ccc2c3c1O[C@H]1C[C@@H](O)C=C[C@@]31CCN(C)C2 [Galantamine]
- concentration that significantly reduced cell viability compared to the control group (p < 0.001) ([1]; 48 h, RTCA): 100 µM
- concentration up to which no cytotoxicity was observed (cell index) ([1]; 48 h, RTCA): ≤ 10 µM
- concentration that significantly reduced cell viability compared to the control group (p < 0.001) ([1]; 48 h, RTCA, listed as galantamine): 25 to 50 µM
- safe optimum concentration that does not harm cell viability ([1]; based on both RTCA and MTT): 10 µM
- concentration (and below) with cell viability close to the control, no cytotoxicity [2]: ≤ 10 µM
- cytotoxic concentration in correlation with RTCA findings [2]: 25 µM

SMILES: Nc1nc2[nH]cc(CN[C@H]3C=C[C@H](O)[C@@H]3O)c2c(=O)[nH]1 [Queuine]
- concentration that significantly reduced cell viability compared to the control group (p < 0.001) ([1]; 48 h, RTCA): 5 µM
- concentration up to which no cytotoxicity was observed (cell index) ([1]; 48 h, RTCA): ≤ 1.25 µM
- safe optimum concentration that does not harm cell viability ([1]; based on both RTCA and MTT): 1.25 µM
- concentration (and below) with cell viability close to the control, no cytotoxicity [2]: ≤ 1.25 µM
- cytotoxic concentration in correlation with RTCA findings [2]: 5 µM

SMILES: Cc1ncc(C[n+]2csc(CCO)c2C)c(N)n1 [Thiamine]
- concentration up to which no cytotoxicity was observed (cell index) ([1]; 48 h, RTCA): ≤ 4800 µM
- cytotoxicity ([1]; 48 h, RTCA, 150-4800 μM): no significant cytotoxicity at any applied concentration
- IC50 ([1]; Homo sapiens, 48 h, read-out: IC50 ± SEM): 18.8 mM
- harmful effect on cell viability ([1]; based on both RTCA and MTT): no dose of Thiamine applied exhibited harmful effects
- cytotoxicity [2]: did not show any cytotoxic effect at any concentration
